In patent publication US20240300943A1, “NOVEL SALTS OF HETEROCYCLIC COMPOUND AS PROTEIN KINASE INHIBITOR AND USES THEREOF” (HK INNO.N CORPORATION, priority 2021, published 2024):

Tests used:
[1] = Measurement of water solubility; format: physicochemical; settings: saturated solution shaken at room temperature for 24 hours
Protocol: A liquid phase was taken out of the solution and filtered using a 0.22 μm PVDF filter. The filtered liquid phase was diluted 10-fold for LC analysis.
LC analysis was performed by the following method.

RBL-2H3 cells = assay: IL-4 secretion inhibitory activity in Basophil cells; format: cell-based; settings: FIG. 8
Protocol: RBL-2H3 cells were diluted in 10% FBS EMEM medium and divided in a 24-well plate to reach 1×10^5 cells/well. The cells were incubated in a 37° C. incubator for 18 hours or longer.
The test material (Compound 1) was treated at each concentration (at a final concentration of 0, 0.1, 0.5 and 1 μM) under PMA (50 nmol/L) and A23187 (1 μmol/L) stimulation. The cells were incubated in a 37° C. incubator for 24 hours. Then, the reaction was terminated on ice, after the degree of IL-4 secretion in the culture supernatant was measured by IL-4 ELISA kit.

JAK2 [2] = assay: Human whole blood assay, JAK2; format: cell-based; settings: cytokine-induced STAT phosphorylation
Protocol: A stock solution of Compound 1 obtained according to Preparation Example 1 was diluted with distilled water and then serially diluted at ⅕ with 4% DMSO. 5 μL of test material was added to 100 μL of whole blood collected using a 1.7 mL eppendorf tube, mixed, and incubated at 37° C. for 45 minutes.
IL-6 (10 μg/ml) was diluted with 0.1% BSA/DW to reach 1 μg/mL each. 5 μL of IL-6 was added (at a final concentration of 50 ng/mL) and incubated at 37° C. for 15 minutes. At this time, 5 μL of DPBS was added as a non-stimulated control group. Lyse/fix buffer 5× was diluted 1× in distilled water and used. […]
For double staining of CD4 and pSTATI, anti-[…] and anti-pSTATI were mixed in a staining buffer and added to each of the samples. […] On the next day, the results were analyzed using FACSCanto II. […]
The numerical values analyzed by FlowJo were calculated to obtain IC50 values using GraphPad Prism 5 software (product name).
No treatment response (NTR) was set as a reference, and the degree of the phosphorylation of STAT induced by cytokines was converted into a relative ratio (% control group). A dose-response plot was obtained for each concentration-dependent activity of each test material using GraphPad Prism (version 5.0) and ICso values were calculated.

JAK1, 2 = assay: In vitro cell assay, JAK1, 2 (STAT phosphorylation ELISA); format: cell-based; settings: read-out: IC50, Cell Biology JAK1, 2
Protocol: (§1) UT-7/EPO cell is an erythroleukemic cell line which expresses an EPO receptor, and is frequently used in many previous studies as a model to assess EPO-induced STAT5 phosphorylation mediated by JAK1 and JAK2 activity. Accordingly, in order to evaluate the activity of JAK1 and JAK2, UT-7/EPO cells were prepared.
(§2) The test material was dissolved in DMSO, prepared at 10 mM, divided by 20 μL each, and stored at −20° C.
(§3) • EPO: 2000 U/0.5 mL of stock was divided by 50 μL each and stored under refrigeration. • IL-2: 200 μg/ml of stock was prepared, divided by 5 μL each, and stored, and then treated at 2 ng/ml. (IL-2 1 μg/ml=13000 U/ml) • IFN-alphaB2: […] of stock was diluted and used, and then treated to reach 30000 U/ml.
(§4) • UT-7/EPO cell assay: MEM-alpha (Gibco, cat #12561-056) was prepared to contain 5% FBS and 1% P/S before use. • NK-92 cell assay: A preparation was made to contain HBSS, 1% FBS and 1% P/S before use. • U2OS cell assay: A preparation was made to contain HBSS, 1% FBS and 1% P/S before use.
(§5) The cultured cells were centrifuged (1,000 rpm, 5 minutes) and washed with PBS. The size of cell lines and appropriate reaction concentration thereof were set and the cell lines were seeded in a 96-well plate at 1×10^5 to 10^6 cells/well (50 μL/well). […]

JAK1, Tyk2 = assay: In vitro cell assay, JAK1, Tyk2 (U2OS cells, IFN-alphaB2); format: cell-based; settings: Homo sapiens, read-out: IC50, Cell Biology JAK1, Tyk2
Protocol: Furthermore, there is a literature in which U20S cells are associated with JAK1/TYK2 signaling activity and phosphorylation of STAT1 by IFN-alphaB2 and IFN-γ. Accordingly, U2OS cells were prepared for the evaluation of JAK1 and TYK2 as a cell line which strongly expresses STAT1 signals.
as §2, §3, §4
as §5, with “μL/well). The test material was prepared 4× of the concentration to be treated, and prepared at five to six concentrations by serial dilution of ⅕ each.” for “μL/well).”

JAK2 [3] = target: JAK2 (Homo sapiens, UniProt O60674); assay: In vitro cell assay, JAK2 (STAT phosphorylation ELISA); format: cell-based; parameters: endogenous in cells; host or cells: UT-7/EPO (inferred); settings: read-out: IC50, Cell Biology JAK2
Protocol: as §1, §2, §3, §4, §5

Chain of JAK2 (Homo sapiens, UniProt O60674) (O60674 whole entry, species assumed): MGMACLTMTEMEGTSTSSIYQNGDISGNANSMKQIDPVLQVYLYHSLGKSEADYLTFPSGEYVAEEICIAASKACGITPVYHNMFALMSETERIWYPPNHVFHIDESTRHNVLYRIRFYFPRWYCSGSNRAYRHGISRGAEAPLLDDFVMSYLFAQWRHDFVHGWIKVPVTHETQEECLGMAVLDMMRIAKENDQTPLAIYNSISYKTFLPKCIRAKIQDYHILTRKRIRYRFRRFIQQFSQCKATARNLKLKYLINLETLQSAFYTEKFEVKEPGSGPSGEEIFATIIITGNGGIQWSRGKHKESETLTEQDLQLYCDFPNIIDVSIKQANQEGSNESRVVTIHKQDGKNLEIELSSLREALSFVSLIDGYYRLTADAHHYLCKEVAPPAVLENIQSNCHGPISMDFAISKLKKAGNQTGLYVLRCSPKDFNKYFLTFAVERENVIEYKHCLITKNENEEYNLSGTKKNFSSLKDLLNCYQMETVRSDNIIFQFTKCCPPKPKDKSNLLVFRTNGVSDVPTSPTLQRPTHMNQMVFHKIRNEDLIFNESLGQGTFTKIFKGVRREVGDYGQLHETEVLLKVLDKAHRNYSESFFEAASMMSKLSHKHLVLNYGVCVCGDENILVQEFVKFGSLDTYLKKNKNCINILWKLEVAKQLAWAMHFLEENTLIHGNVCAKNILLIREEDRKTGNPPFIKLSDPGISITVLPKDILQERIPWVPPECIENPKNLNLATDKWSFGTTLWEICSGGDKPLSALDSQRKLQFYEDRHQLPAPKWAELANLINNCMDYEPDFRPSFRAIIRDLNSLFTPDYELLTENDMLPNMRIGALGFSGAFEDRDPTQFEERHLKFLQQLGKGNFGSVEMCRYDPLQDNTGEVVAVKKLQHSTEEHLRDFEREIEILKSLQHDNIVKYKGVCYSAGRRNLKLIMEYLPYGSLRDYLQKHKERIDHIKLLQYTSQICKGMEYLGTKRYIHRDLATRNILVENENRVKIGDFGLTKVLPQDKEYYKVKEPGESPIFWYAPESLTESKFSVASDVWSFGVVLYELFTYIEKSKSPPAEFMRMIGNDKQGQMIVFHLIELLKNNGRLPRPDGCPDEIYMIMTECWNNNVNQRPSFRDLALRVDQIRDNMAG

Water solubility [1] [µg/mL] | IC50 (JAK2 [2]) [nM] | IC50 (JAK1, 2) [nM] | IC50 (JAK1, Tyk2) [nM] | IC50 (JAK2 [3]) [nM] | SMILES | IL-4 concentration compared to the negative control group (vehicle) (RBL-2H3 cells; 0.5 μM and 1 μM) | IL-4 secretion (RBL-2H3 cells; RBL-2H3 cells, PMA and A23187 stimulation, 24 hours)
3900 | – | – | – | – | C[C@@H]1CN(C(=O)CC#N)CC=C1c1cc(NC(=O)C2CC2)nc2[nH]ccc12 [Example 3, (S)—N-(4-(1-(2-cyanoacetyl)-3-methyl-1,2,3,6-tetrahydropyridin-4-yl)-1H-pyrrolo[2,3-b]pyridin-6-yl)cyclopropanecarboxamide] | – | –
– | 774 | 18 | 27 | 656 | C[C@@H]1CN(C(=O)CC#N)CC=C1c1cc(NC(=O)C2CC2)nc2[nH]ccc12 [Compound 1, (S)—N-(4-(1-(2-cyanoacetyl)-3-methyl-1,2,3,6-tetrahydropyridin-4-yl)-1H-pyrrolo[2,3-b]pyridin-6-yl)cyclopropanecarboxamide] | remarkably reduced to almost ½ or more | inhibits IL-4 secretion
